“And” between values parts separate entries of the source, which are not always exact repeats. Equal entries are not always repeated.
How the values were obtained:
[1] = tested on: transferred CD45.1+ OT-II Th9 cells; experiment: Flow cytometry of transferred CD45.1+ OT-II Th9 cells in spleen, LN, tumor (Figure 2B-C, S1C-E); format: in vivo, mouse; conditions: for Frequencies of transferred CD45.1⁺ OT-II Th9 cells among CD45⁺ cells in LN: Supplemental Figure 1D left; for number of transferred CD45.1⁺ OT-II Th9 cells among CD45⁺ cells in LN: Supplemental Figure 1D right; for CD45.1+ gate number: representative flow plot
Description: C57BL/6 mice were subcutaneously injected with 5 × 10^5 B16-OVA melanoma cells. Five days after tumor implantation, mice received an intravenous infusion of 2 × 10^6 in vitro–differentiated Th9 cells (cultured for 5 days), which were derived from OT-II CD45.1 donor mice, accompanied by 4 × 10^5 OVA peptide–pulsed DCs via the tail vein. To enhance T cell engraftment and facilitate lymphodepletion, a single intraperitoneal injection of cyclophosphamide (200 mg/kg, Sigma, catalog C0768) was administered 1 day prior to T cell transfer. Mice were euthanized at designated time points for the collection and analysis of spleens, tumor-draining lymph nodes, and tumor tissues.
Details regarding staining panels (human and mouse), reagents (including clones and catalog numbers), acquisition settings, compensation/controls, and analysis procedures are provided in Supplemental Methods.
BioLegend, Cat. No. 422301 or Mouse TruStain FcX™, BioLegend, Cat. No. 101319) for 10 minutes at 4°C. For surface marker detection, cells were stained with fluorochrome-conjugated monoclonal antibodies in 96-well V-bottom plates and incubated on ice for 30 minutes. After staining, cells were washed twice and resuspended in FACS buffer for analysis.
Prior to intracellular cytokine staining, cells were restimulated for 4 hours with PMA (Absin, Cat. No. abs9107), ionomycin (Sigma-Aldrich, Cat. No. I0634), and brefeldin A (MedChemExpress, Cat. No. HY-16592). For intracellular cytokine staining, cells were first surface-stained as described above, then fixed and permeabilized using the BD Cytofix/Cytoperm™ kit (BD Biosciences, Cat. No. 554714) according to the manufacturer ’s protocol. Intracellular proteins were stained with directly conjugated antibodies targeting IL-9, IL-17a, IL-4, IFN-γ, TNF-α, FOXP3, p-ZAP70, Perforin, and […]
Antibodies used for mouse samples included those against IL-9 (PE, clone RM9A4, Biolegend, Cat. No. 514104), IFN-γ (PE, clone XMG1.2, Biolegend, Cat. No.
Cat. No. 103138), CD4 (APC/Cy7, clone E-AB-F1353UJ, Elabscience, Cat. No.
AF18028), CD8α (PerCP/Cy5.5, clone E-AB-F1104UJ, Elabscience, Cat. No. […]
clone E-AB-F1187UH, Elabscience, Cat. No. AF19854), TNF-α (BV421, clone MP6-XT22, Biolegend, Cat. No. 506328), FOXP3 (PE, clone FJK-16s, eBioscience, Cat. No.
Perforin (APC, clone S16009A, Biolegend, Cat. No. 154303) and Granzyme B (APC, […]
clone QA16A02, Biolegend, Cat. No. 372203). […]
Figure S1. EpA enhances immune responses. […]
Representative flow-cytometric plots showing transferred CD45.1⁺ OT-II Th9 cells in spleens (C), tumor-draining lymph nodes (LNs) (D), and tumors (E); frequencies Figure S1 and absolute numbers of CD45.1⁺ OT-II Th9 cells in LNs are quantified in (D). (F– […]
Statistical analysis was performed using two-way ANOVA with Tukey’s post hoc test (A), one-way ANOVA with Tukey’s post hoc test (B) or two-tailed unpaired Student’s t-test (D and G–M). ns, not significant. *p < 0.05, **p < 0.01, ****p < 0.0001.
(also on this page, place not known: Mouse weight (g) CtrlEpA CtrlEpA CtrlEpA0 I CD45.1+ T cells (%) CtrlEpA CD4+ T cells (%) CtrlEpA CtrlEpA CtrlEpA FSC CD8 CD8 FSC FSC FSC BNumber of CD45.1+ T cells (×103 per mgĎ Number of CD4+ T cells (×104 per mgĎ DC (%)NK cells (%) NK cells (%) DC (%) Number of DC (×103 per mg) Number of NK cells (×105) Number of NK cells (×103 per mg) Number of DC (×105) FSC FSC FSC CD8 CtrlEpA CtrlEpA CtrlEpA CD8+ T cells (%) Number of CD8+ T cells (×104 per mgĎ nsns ns nsns ns 40 IL-6 (pg/ml)) […]

human Th9 CAR T cells = experiment: IL-9 in human Th9 CAR T cells (S9D-E); format: cell-based; conditions: for IL-9 expression in human Th9 CAR-T cells: Supplemental Figure 9E; for IL-9 gate number: representative flow plot, Figure S9D
Excerpt: Details regarding staining panels (human and mouse), reagents (including clones and catalog numbers), acquisition settings, compensation/controls, and analysis procedures are provided in Supplemental Methods. […]
(C) Flow-cytometric analysis of infection efficiency in Th9 cells transduced with a CD19-directed CAR lentivirus. (D and E) Flow-cytometric analysis of IL-9 expression in human Th9 CAR-T cells on days 5 and 6 of in vitro differentiation, showing representative plots (D) and quantification (E) (n = 3). […]
(H) and quantification (I) (n = 5 mice per group). Statistical analysis was performed using one-way ANOVA with Tukey’s post hoc test (A and B), or two-tailed unpaired Student’s t-test (E–G, and I). Repeated data are presented as mean ± SEM. *p < 0.05, […]
(also on this page, place not known: TP cells ANOV A 30IL-9+ cells (%) Fato Fato Fato Fato A SSC GzmB CtrlEpA MFIofMitoTracker (×102) GF NormalizedATPlevel CtrlEpA 4MFI of Mito Tracker (×105) CtrlEpA0 GzmB+ cells (%) CD4 10 20 IL-9+ cells (%) Day60 10 20 30 Ctrl) […]

[2] = spleens, individual mice, n = 4

Substance: anteiso-C15 Leu7 surfactin [EpA]
- Frequencies of transferred CD45.1⁺ OT-II Th9 cells among CD45⁺ cells in LN ([1]; LN, replicate 1): 25.5%
- Frequencies of transferred CD45.1⁺ OT-II Th9 cells among CD45⁺ cells in LN ([1]; LN, replicate 2): 16.2%
- Frequencies of transferred CD45.1⁺ OT-II Th9 cells among CD45⁺ cells in LN ([1]; LN, replicate 3): 15.5%
- Frequencies of transferred CD45.1⁺ OT-II Th9 cells among CD45⁺ cells in LN ([1]; LN, replicate 4): 16.6%
- number of transferred CD45.1⁺ OT-II Th9 cells among CD45⁺ cells in LN ([1]; LN, replicate 1): 12444.4
- number of transferred CD45.1⁺ OT-II Th9 cells among CD45⁺ cells in LN ([1]; LN, replicate 2): 12569.8
- number of transferred CD45.1⁺ OT-II Th9 cells among CD45⁺ cells in LN ([1]; LN, replicate 3): 11818.2
- number of transferred CD45.1⁺ OT-II Th9 cells among CD45⁺ cells in LN ([1]; LN, replicate 4): 11251.4
- CD45.1+ gate number ([1]; LN, Figure S1D): 15.5%
- CD45.1+ gate number ([1]; Spleen, Figure S1C): 11.7%
- CD45.1+ gate number ([1]; Tumor, Figure S1E): 6.7%
- expansion of transferred cells ([1]; lymph nodes, result in words): moderately in the lymph nodes
- expansion of transferred cells ([1]; spleen, result in words): expanded robustly in the spleen
- Total CD45.1(%) among CD45+ cells [1, 2]: 11.1% and 9.13% and 7.88% and 11.8%
- number of CD45.1+ T cells [1, 2]: 854404 and 834158 and 848241 and 1565169
- CD45.1 (%) among CD4+ cells ([1]; tumors, individual mice, n = 4): 6.68% and 1.49% and 0.81% and 0.8%
- number of CD45.1+ OT-II Th9 cells ([1]; tumors, individual mice, n = 4): 16 and 22 and 24 and 15
- absolute number of transferred cells ([1]; tumors, result in words): markedly increased
- frequency of transferred cells ([1]; tumors, result in words): remained comparable
- IL-9 expression in human Th9 CAR-T cells (human Th9 CAR T cells; Day5, replicate 1): 27.7
- IL-9 expression in human Th9 CAR-T cells (human Th9 CAR T cells; Day5, replicate 2): 21.8
- IL-9 expression in human Th9 CAR-T cells (human Th9 CAR T cells; Day5, replicate 3): 25.1
- IL-9 gate number (human Th9 CAR T cells; Day5): 24.8
- IL-9 expression in human Th9 CAR-T cells (human Th9 CAR T cells; Day6, replicate 1): 6.55
- IL-9 expression in human Th9 CAR-T cells (human Th9 CAR T cells; Day6, replicate 2): 6.68
- IL-9 expression in human Th9 CAR-T cells (human Th9 CAR T cells; Day6, replicate 3): 6.84
- IL-9 gate number (human Th9 CAR T cells; Day6): 6.7
- IL-9 production, Th9 CAR T (human Th9 CAR T cells; result in words): increased IL-9 production
